These molecules were tested against T1, ALDH1A1 (Homo sapiens, UniProt P00352) (assay: Selectivity biochemical assay, NAD(P)H-Glo Detection System).
T1 construct: His-tag; made in house; host or cells: E. coli Rosetta (DE3)
T1 sequence (P00352 1-501): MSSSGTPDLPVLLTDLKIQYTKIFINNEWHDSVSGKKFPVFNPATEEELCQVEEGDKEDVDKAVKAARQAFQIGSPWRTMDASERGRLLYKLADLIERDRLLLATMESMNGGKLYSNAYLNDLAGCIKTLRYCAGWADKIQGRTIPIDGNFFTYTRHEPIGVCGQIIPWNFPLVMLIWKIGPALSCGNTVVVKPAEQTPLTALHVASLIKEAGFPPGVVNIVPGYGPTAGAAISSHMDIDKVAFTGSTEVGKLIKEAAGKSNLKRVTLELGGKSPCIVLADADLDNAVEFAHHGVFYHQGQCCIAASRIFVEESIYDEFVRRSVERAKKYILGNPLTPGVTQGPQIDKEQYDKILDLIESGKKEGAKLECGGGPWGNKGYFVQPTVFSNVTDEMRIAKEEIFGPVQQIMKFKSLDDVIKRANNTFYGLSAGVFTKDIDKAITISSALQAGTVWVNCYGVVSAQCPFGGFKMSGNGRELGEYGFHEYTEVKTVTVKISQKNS
Procedure, shortened: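 Recombinant full-length His-tagged human enzymes expressed in E. coli were pre-incubated 30 min at room temperature with compound (10-point, 3-fold series; top 20 μM for ALDH1A3, 250 μM for ALDH1A1/1A2). Propionaldehyde and NAD were then added at Km; NADH was read by NAD(P)H-Glo luminescence. Buffer: Tris (pH 7.6 for 1A1/1A2, 9.0 for 1A3), 1 mM TCEP, 0.01% Tween-20.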
CC1(c2cccc(F)c2)CCCN1CCOc1ccc2c(c1)CCC(=O)N2 (stereo not shown) [ALDHI-2037, 6-[2-[2-(3-fluorophenyl)-2-methyl-pyrrolidin-1-yl]ethoxy]-3,4-dihydro-1H-quinolin-2-one] gave an IC50 of at least 100 µM.
CC1(C)Oc2cc(OCCN3CCCC3c3cccc(F)c3)ccc2NC1=O (stereo not shown) [ALDHI-2043, 7-[2-[2-(3-fluorophenyl)pyrrolidin-1-yl]ethoxy]-2,2-dimethyl-4H-1,4-benzoxazin-3-one] was tested, and the IC50 was at least 100 µM.
O=C1CCc2cc(OCCN3CCCC3c3ccncc3)ccc2N1 (stereo not shown) [ALDHI-2004, 6-[2-[2-(4-pyridyl)pyrrolidin-1-yl]ethoxy]-3,4-dihydro-1H-quinolin-2-one] was tested, and the IC50 was at least 100 µM.
For O=C1CCc2cc(NC(=O)c3scnc3-c3cccc(F)c3)ccc2N1 [ALDHI-1003, 4-(3-fluorophenyl)-N-(2-oxo-3,4-dihydro-1H-quinolin-6-yl)thiazole-5-carboxamide], the IC50 was at least 100 µM.
Work on CCN(CC)CCN(CCOc1ccc2c(c1)CCC(=O)N2)Cc1ccccc1 [ALDHI-3004, 6-[2-[benzyl-[2-(diethylamino)ethyl]amino]ethoxy]-3,4-dihydro-1H-quinolin-2-one] yielded an IC50 of at least 100 µM.
Work on CN(CCOc1ccc2c(c1)CCC(=O)N2)Cc1cccnc1 [ALDHI-3010, 6-[2-[methyl(3-pyridylmethyl)amino]ethoxy]-3,4-dihydro-1H-quinolin-2-one] yielded an IC50 of 10 to 100 µM.
O=C1CCc2cc(NC(=O)c3ocnc3-c3cccc(F)c3)ccc2N1 [ALDHI-1019, 4-(3-fluorophenyl)-N-(2-oxo-3,4-dihydro-1H-quinolin-6-yl)oxazole-5-carboxamide] showed an IC50 of at least 100 µM.
With O=C1CCc2cc(OCCN3CCCC3c3ccc(F)c(F)c3)ccc2N1 (stereo not shown) [ALDHI-2039, 6-[2-[2-(3,4-difluorophenyl)pyrrolidin-1-yl]ethoxy]-3,4-dihydro-1H-quinolin-2-one] the IC50 was 1 to 10 µM.
In the case of O=C1CCc2cc(NC(=O)c3sc(N4CCNCC4)nc3-c3cccc(F)c3)ccc2N1 [ALDHI-1005, 4-(3-fluorophenyl)-N-(2-oxo-3,4-dihydro-1H-quinolin-6-yl)-2-piperazin-1-yl-thiazole-5-carboxamide], the IC50 is reported as at least 100 µM.
With O=C1CCc2cc(OCCN3CCCC3c3cccc(F)c3)ccc2N1 (stereo not shown) [ALDHI-2001, 6-[2-[2-(3-fluorophenyl)pyrrolidin-1-yl]ethoxy]-3,4-dihydro-1H-quinolin-2-one] the IC50 was at least 100 µM.
Cc1ccc(C2CCCN2CCOc2ccc3c(c2)CCC(=O)N3)cc1 (stereo not shown) [ALDHI-2010, 6-[2-[2-(p-tolyl)pyrrolidin-1-yl]ethoxy]-3,4-dihydro-1H-quinolin-2-one] was tested, and the IC50 was at least 100 µM.
In the case of O=C1CSc2cc(OCCN3CCCC3c3ccncc3)ccc2N1 (stereo not shown) [ALDHI-2029, 7-[2-[2-(4-pyridyl)pyrrolidin-1-yl]ethoxy]-4H-1,4-benzothiazin-3-one], the IC50 is reported as at least 100 µM.
Work on O=C1CCc2cc(NC(=O)c3scnc3-c3ccc(F)cc3)ccc2N1 [ALDHI-1017, 4-(4-fluorophenyl)-N-(2-oxo-1,2,3,4-tetrahydroquinolin-6-yl)thiazole-5-carboxamide] yielded an IC50 of at least 100 µM.
Work on Cc1ccccc1C1CCCN1CCOc1ccc2c(c1)CCC(=O)N2 (stereo not shown) [ALDHI-2012, 6-[2-[2-(o-tolyl)pyrrolidin-1-yl]ethoxy]-3,4-dihydro-1H-quinolin-2-one] yielded an IC50 of at least 100 µM.
Work on O=C1CCc2cc(OCCN3CCCC3c3ccc(F)cc3)ccc2N1 (stereo not shown) [ALDHI-2003, 6-[2-[2-(4-fluorophenyl)pyrrolidin-1-yl]ethoxy]-3,4-dihydro-1H-quinolin-2-one] yielded an IC50 of at least 100 µM.
Work on CC1CN(CCOc2ccc3c(c2)CCC(=O)N3)C(c2ccccc2)CO1 (mixture of isomers) [ALDHI-2042, 6-[2-(2-methyl-5-phenyl-morpholin-4-yl)ethoxy]-3,4-dihydro-1H-quinolin-2-one] yielded an IC50 of 10 to 100 µM.
For O=C1CCc2cc(OCCN(CCO)Cc3cccnc3)ccc2N1 [ALDHI-3005, 6-[2-[2-hydroxyethyl(3-pyridylmethyl)amino]ethoxy]-3,4-dihydro-1H-quinolin-2-one], the IC50 was at least 100 µM.
With COc1cccc(C2CCCN2CCOc2ccc3c(c2)CCC(=O)N3)c1 (stereo not shown) [ALDHI-2034, 6-[2-[2-(3-methoxyphenyl)pyrrolidin-1-yl]ethoxy]-3,4-dihydro-1H-quinolin-2-one] the IC50 was at least 100 µM.
Cc1cccc(-c2ncsc2C(=O)Nc2ccc3c(c2)CCC(=O)N3)c1 [ALDHI-1013, 4-(m-tolyl)-N-(2-oxo-3,4-dihydro-1H-quinolin-6-yl)thiazole-5-carboxamide] gave an IC50 of at least 100 µM.
In the case of O=C1CCc2cc(OCCN3CCCC3c3cccc(F)c3)c(F)cc2N1 (stereo not shown) [ALDHI-2050, 7-fluoro-6-[2-[2-(3-fluorophenyl)pyrrolidin-1-yl]ethoxy]-3,4-dihydro-1H-quinolin-2-one], the IC50 is reported as at least 100 µM.
O=C1CCc2cc(NC(=O)c3cncnc3-c3cccc(F)c3)ccc2N1 [ALDHI-1018, 4-(3-fluorophenyl)-N-(2-oxo-3,4-dihydro-1H-quinolin-6-yl)pyrimidine-5-carboxamide] showed an IC50 of at least 100 µM.
In the case of O=C1COc2cc(NC(=O)c3scnc3-c3cccc(F)c3)ccc2N1 [ALDHI-1016, 4-(3-fluorophenyl)-N-(3-oxo-4H-1,4-benzoxazin-7-yl)thiazole-5-carboxamide], the IC50 is reported as at least 100 µM.
O=C1CCc2cc(NC(=O)c3scnc3-c3ccccc3F)ccc2N1 [ALDHI-1021, 4-(2-fluorophenyl)-N-(2-oxo-3,4-dihydro-1H-quinolin-6-yl)thiazole-5-carboxamide] showed an IC50 of at least 100 µM.
In the case of O=C1CCc2cc(OCCN3CCCC3c3ccsc3)ccc2N1 (stereo not shown) [ALDHI-2014, 6-[2-[2-(3-thienyl)pyrrolidin-1-yl]ethoxy]-3,4-dihydro-1H-quinolin-2-one], the IC50 is reported as at least 100 µM.
For Cc1noc(-c2ccccc2C(=O)Nc2ccc3c(c2)CCC(=O)N3)n1 [ALDHI-1008, 2-(3-methyl-1,2,4-oxadiazol-5-yl)-N-(2-oxo-1,2,3,4-tetrahydroquinolin-6-yl)benzamide], the IC50 was at least 100 µM.
O=C1CCc2cc(OCCn3ccnc3-c3ccccc3)ccc2N1 [ALDHI-2041, 6-[2-(2-phenylimidazol-1-yl)ethoxy]-3,4-dihydro-1H-quinolin-2-one] gave an IC50 of at least 100 µM.
O=C1CCc2cc(NC(=O)c3sc(N4CC(O)C4)nc3-c3cccc(F)c3)ccc2N1 [ALDHI-1004, 4-(3-fluorophenyl)-2-(3-hydroxyazetidin-1-yl)-N-(2-oxo-3,4-dihydro-1H-quinolin-6-yl)thiazole-5-carboxamide] was tested, and the IC50 was at least 100 µM.
O=C1CSc2cc(OCCN3CCCC3c3cccnc3)ccc2N1 (stereo not shown) [ALDHI-2028, 7-[2-[2-(3-pyridyl)pyrrolidin-1-yl]ethoxy]-4H-1,4-benzothiazin-3-one] gave an IC50 of at least 100 µM.
Work on C[C@@H](c1ccccc1)N(CCO)CCOc1ccc2c(c1)CCC(=O)N2 [ALDHI-3007, 6-[2-[2-hydroxyethyl-[(1S)-1-phenylethyl]amino]ethoxy]-3,4-dihydro-1H-quinolin-2-one] yielded an IC50 of 10 to 100 µM.
In the case of CN(CCOc1ccc2c(c1)CCC(=O)N2)C(CO)c1cccc(F)c1 (stereo not shown) [ALDHI-3003, 6-[2-[[1-(3-fluorophenyl)-2-hydroxy-ethyl]-methyl-amino]ethoxy]-3,4-dihydro-1H-quinolin-2-one], the IC50 is reported as at least 100 µM.
In the case of O=C1CCc2cc(NC(=O)c3ncsc3-c3cccc(F)c3)ccc2N1 [ALDHI-1014, 5-(3-fluorophenyl)-N-(2-oxo-3,4-dihydro-1H-quinolin-6-yl)thiazole-4-carboxamide], the IC50 is reported as at least 100 µM.
With O=C1CCc2cc(NC(=O)c3sc(N4CCOCC4)nc3-c3cccc(F)c3)ccc2N1 [ALDHI-1001, 4-(3-fluorophenyl)-2-morpholino-N-(2-oxo-3,4-dihydro-1H-quinolin-6-yl)thiazole-5-carboxamide] the IC50 was at least 100 µM.
O=C1CCc2cc(OCCN3CCCC3c3cccs3)ccc2N1 (stereo not shown) [ALDHI-2013, 6-[2-[2-(2-thienyl)pyrrolidin-1-yl]ethoxy]-3,4-dihydro-1H-quinolin-2-one] was tested, and the IC50 was at least 100 µM.
Work on CC1Oc2cc(OCCN3CCCC3c3cccc(F)c3)ccc2NC1=O (stereo not shown) [ALDHI-2044, 7-[2-[2-(3-fluorophenyl)pyrrolidin-1-yl]ethoxy]-2-methyl-4H-1,4-benzoxazin-3-one] yielded an IC50 of at least 100 µM.
O=C1CSc2cc(OCCN3CCCC3c3ccccn3)ccc2N1 (stereo not shown) [ALDHI-2027, 7-[2-[2-(2-pyridyl)pyrrolidin-1-yl]ethoxy]-4H-1,4-benzothiazin-3-one] was tested, and the IC50 was at least 100 µM.
O=C1CCc2cc(NC(=O)c3ncsc3-c3ccsc3)ccc2N1 [ALDHI-1011, N-(2-oxo-3,4-dihydro-1H-quinolin-6-yl)-5-(3-thienyl)thiazole-4-carboxamide] showed an IC50 of at least 100 µM.
CC1Cc2cc(OCCN3CCCC3c3cccc(F)c3)ccc2NC1=O (stereo not shown) [ALDHI-2048, 6-[2-[2-(3-fluorophenyl)pyrrolidin-1-yl]ethoxy]-3-methyl-3,4-dihydro-1H-quinolin-2-one] showed an IC50 of 10 to 100 µM.
In the case of O=C1CCc2cc(NC(=O)c3scnc3-c3cccs3)ccc2N1 [ALDHI-1023, N-(2-oxo-3,4-dihydro-1H-quinolin-6-yl)-4-(2-thienyl)thiazole-5-carboxamide], the IC50 is reported as at least 100 µM.
CN(CCOc1ccc2c(c1)CCC(=O)N2)C(=O)c1cccc(F)c1 [ALDHI-3008, 3-fluoro-N-methyl-N-[2-[(2-oxo-3,4-dihydro-1H-quinolin-6-yl)oxy]ethyl]benzamide] showed an IC50 of at least 100 µM.
Molecule O=C1CCc2cc(OCCN3CCCC3c3cccnc3)ccc2N1 (stereo not shown) [ALDHI-2005, 6-[2-[2-(3-pyridyl)pyrrolidin-1-yl]ethoxy]-3,4-dihydro-1H-quinolin-2-one] has an IC50 of at least 100 µM.

From patent publication US20240174634A1, “Aldehyde Dehydrogenase Inhibitors and Their Therapeutic Use” (priority 2020, published 2024)
